The values that follow are results of earlier work, collected in US12171220B2, “High osmolarity antimicrobial composition containing one or more organic solvents” (Next Science IP Holdings Pty Ltd, priority 2013, dated 2024).

Read-outs that look alike come from different tables or passages of the source.

The conditions of this data set: for ~δp (MPa^1/2): room temperature.
Setting [1] is: solvents added in Examples 65-80, text.

In the case of `OCc1ccc(Cl)cc1` [4-chlorobenzyl alcohol], the “~δp (MPa^1/2)” value (alcohols, Table 2) is around 7.5 MPa^1/2. For `CC(C)COCC(C)O` (centres unmarked) [propylene glycol monoisobutyl ether], the “~δp (MPa^1/2)” value (glycol ethers, Table 1) is reported as around 4.7 MPa^1/2. As for `CCCCOCCO` [ethylene glycol monobutyl ether], the “~δp (MPa^1/2)” value (glycol ethers, Table 1) is given as around 5.1 MPa^1/2.

Take `Clc1ccccc1` [chlorobenzene]: the δp under setting [1] was 4.3. With `O` [water], the δp entry (water) is recorded as “≈ 16.0 MPa^1/2”. On to `CCOCC(C)O` (centres unmarked) [propylene glycol monoethyl ether], for which, where the note is “glycol ethers, Table 1”, the “~δp (MPa^1/2)” value was around 6.5 MPa^1/2. Turning to `CCCCO` [Example 1-butanol, 1-butanol], the “~δp (MPa^1/2)” value (alcohols, Table 2) is given as around 5.7 MPa^1/2. `CCCCOCC(C)O` (centres unmarked) [propylene glycol monobutyl ether]: the “~δp (MPa^1/2)” value (glycol ethers, Table 1) is given as around 4.5 MPa^1/2.

On to `CO` [methanol], for which the “~δp (MPa^1/2)” value (alcohols, Table 2) is around 12.3 MPa^1/2. For `CC(C)CCCCCO` [isooctyl alcohol], the “~δp (MPa^1/2)” value (alcohols, Table 2) is reported as around 7.3 MPa^1/2. With `CCCOCC(C)O` (centres unmarked) [propylene glycol monopropyl ether], where the note is “glycol ethers, Table 1”, the “~δp (MPa^1/2)” value is around 5.6 MPa^1/2. As to `CCCOCCO` [ethylene glycol monopropyl ether], under “glycol ethers, Table 1”, the “~δp (MPa^1/2)” value is listed as around 8.2 MPa^1/2. Turning to `CCCCCCCC/C=C\CCCCCCCCO` [oleyl alcohol], the “~δp (MPa^1/2)” value (alcohols, Table 2) is recorded as around 2.6 MPa^1/2. As for `CCCCCCCCCCO` [Example 1-decanol, 1-decanol], under “alcohols, Table 2”, the “~δp (MPa^1/2)” value is listed as around 10.0 MPa^1/2. On to `OC1C=CCC1` (centres unmarked) [2-cyclopentenyl alcohol], for which the “~δp (MPa^1/2)” value (alcohols, Table 2) is listed as around 7.6 MPa^1/2. For the compound `CCOCCOCCO` [diethylene glycol monoethyl ether], the “~δp (MPa^1/2)” value (glycol ethers, Table 1) is on record as around 9.2 MPa^1/2. Consider `CC(C)(C)O` [t-butyl alcohol], for which, for the setting “alcohols, Table 2”, the “~δp (MPa^1/2)” value is around 5.1 MPa^1/2.

On to `CCCCCCCCO` [octanol], for which the “~δp (MPa^1/2)” value (alcohols, Table 2) is around 3.3 MPa^1/2. On to `OC1CCCCC1` [cyclohexanol], for which the “~δp (MPa^1/2)” value (alcohols, Table 2) was around 4.1 MPa^1/2. `CCOCCO` [ethylene glycol monoethyl ether]: the “~δp (MPa^1/2)” value (glycol ethers, Table 1) was around 9.2 MPa^1/2. Turning to `COCCO` [ethylene glycol monomethyl ether], the “~δp (MPa^1/2)” value (glycol ethers, Table 1) is around 9.2 MPa^1/2. Consider `OCCOc1ccccc1` [ethylene glycol monophenyl ether], for which, where the note is “glycol ethers, Table 1”, the “~δp (MPa^1/2)” value is around 5.7 MPa^1/2. Regarding `CC(O)COC(C)C` (centres unmarked) [propylene glycol monoisopropyl ether], the “~δp (MPa^1/2)” value (glycol ethers, Table 1) is around 6.1 MPa^1/2. As to `CCOC(C)=O` [ethyl acetate], the δp under setting [1] was 5.3. Take `CCO` [ethanol]: the “~δp (MPa^1/2)” value (alcohols, Table 2) is given as around 8.8 MPa^1/2. Regarding `OCCOCc1ccccc1` [ethylene glycol monobenzyl ether], under “glycol ethers, Table 1”, the “~δp (MPa^1/2)” value was around 5.9 MPa^1/2. As for `CCCO` [Example 1-propanol, 1-propanol], the “~δp (MPa^1/2)” value (alcohols, Table 2) is given as around 6.8 MPa^1/2. On to `CCCC(C)O` (centres unmarked) [Example 2-pentanol, 2-pentanol], for which the “~δp (MPa^1/2)” value (alcohols, Table 2) was around 6.4 MPa^1/2.

For `CCCCC(CC)CO` (centres unmarked) [2-ethyl-hexanol], the “~δp (MPa^1/2)” value (alcohols, Table 2) is recorded as around 3.3 MPa^1/2. With `C=CCO` [Example 2-propenol, 2-propenol], for the setting “alcohols, Table 2”, the “~δp (MPa^1/2)” value is around 10.8 MPa^1/2.

As to `COCC(C)O` (centres unmarked) [propylene glycol monomethyl ether], under “glycol ethers, Table 1”, the “~δp (MPa^1/2)” value is recorded as around 6.3 MPa^1/2.

Turning to `OCC(Cl)CCl` (centres unmarked) [2,3-dichloropropanol], the “~δp (MPa^1/2)” value (alcohols, Table 2) is on record as around 9.2 MPa^1/2. For the compound `CC(C)O` [Example 2-propanol, 2-propanol], for the setting “alcohols, Table 2”, the “~δp (MPa^1/2)” value is listed as around 6.1 MPa^1/2. As for `COCCOCCO` [diethylene glycol monomethyl ether], under “glycol ethers, Table 1”, the “~δp (MPa^1/2)” value is given as around 7.8 MPa^1/2. On to `CC(C)OCCO` [ethylene glycol monoisopropyl ether], for which, for the setting “glycol ethers, Table 1”, the “~δp (MPa^1/2)” value was around 8.2 MPa^1/2. Consider `COCCOCCOCCO` [triethylene glycol monomethyl ether], for which, for the setting “glycol ethers, Table 1”, the “~δp (MPa^1/2)” value is reported as around 7.6 MPa^1/2. Consider `CCCCOCCOCCO` [diethylene glycol mono-n-butyl ether], for which the “~δp (MPa^1/2)” value (glycol ethers, Table 1) is given as around 7.0 MPa^1/2. Consider `CCCCCCCCC(C)O` (centres unmarked) [Example 2-decanol, 2-decanol], for which the “~δp (MPa^1/2)” value (alcohols, Table 2) is reported as around 10.0 MPa^1/2.

As for `CCCCCO` [Example 1-pentanol, 1-pentanol], under “alcohols, Table 2”, the “~δp (MPa^1/2)” value is around 4.5 MPa^1/2. With `CCC(CC)CO` [2-ethyl-1-butanol], the “~δp (MPa^1/2)” value (alcohols, Table 2) is listed as around 4.3 MPa^1/2. With `CCCCCCCC/C=C\CCCCCCCCOCCOCCOCCO` [triethylene glycol monooleyl ether], where the note is “glycol ethers, Table 1”, the “~δp (MPa^1/2)” value is around 3.1 MPa^1/2.
